What was measured:
Type in all cases: in vivo
[1] = test system: Tetranychus urticae (spider mites - adult); assay: Contact test, spider mites - adult (TUa), French bean leaf; details: 72 h, 3 days, read-out: TUA grading of mortality
Description: (§1) The activity of the Product was determined using a variety of insect pests. The Product was used in the form of liquid preparations containing from 100 to 500 parts per million (ppm) by weight of the Product. The preparations were made by dissolving the Product in acetone and diluting the solutions with water containing 0.1% by weight of a wetting agent sold under the trade name "SYNPERONIC" NX until the liquid preparations contained the required concentration of the Product. "SYNPERONIC" is a Registered Trade Mark. The test procedure adopted with regard to each pest was basically the same and comprised supporting a number of the pests on a medium which was usually a host plant or a foodstuff on which the pests feed, and treating either or both the pests and the medium with the preparations. The mortality of the pests was then assessed at periods usually varying from one to seven days after the treatment.

[2] = test system: Tetranychus urticae (spider mites - ova); assay: Contact test, spider mites - ova (TUe), French bean leaf; details: 144 h, 6 days, read-out: TUE grading of mortality
Description: as §1

Myzus persicae (aphids) = assay: Contact test, aphids (MP), Chinese Cabbage leaf; details: 72 h, 3 days, read-out: MP grading of mortality
Description: as §1, with “treatment. […] In Table III the pest organism used is designated by a letter code and the pests species, the support medium or food, and the type and duration of test is given in Table II.” for “treatment.”

[3] = test system: Nilaparvata lugens (brown plant hopper - nymphs); assay: Contact test, brown plant hopper - nymphs (NL), Rice plant; details: 72 h, 3 days, read-out: NL grading of mortality
Description: as §1

[4] = test system: Musca domestica (houseflies - adults); assay: Knockdown test, houseflies - adults (MD/KD), Cotton wool/sugar; details: 4 hours, read-out: MD/KD grading of knockdown
Description: (§2) The activity of the Product was determined using a variety of insect pests. The Product was used in the form of liquid preparations containing from 100 to 500 parts per million (ppm) by weight of the Product. The preparations were made by dissolving the Product in acetone and diluting the solutions with water containing 0.1% by weight of a wetting agent sold under the trade name "SYNPERONIC" NX until the liquid preparations contained the required concentration of the Product. "SYNPERONIC" is a Registered Trade Mark.
(§3) The test procedure adopted with regard to each pest was basically the same and comprised supporting a number of the pests on a medium which was usually a host plant or a foodstuff on which the pests feed, and treating either or both the pests and the medium with the preparations. The mortality of the pests was then assessed at periods usually varying from one to seven days after the treatment.
In the case of the species Musca domestica (housefly), an additional assessment to determine the knockdown effect of the compounds was performed.
(§4) In Table III the pest organism used is designated by a letter code and the pests species, the support medium or food, and the type and duration of test is given in Table II.

[5] = test system: Musca domestica (houseflies - adults); assay: Contact test, houseflies - adults (MD), Cotton wool/sugar; details: 24 h, 1 day, read-out: MD grading of mortality
Description: as §1

[6] = test system: Blattella germanica (cockroach nymphs); assay: Residual test, cockroach nymphs (BG), Plastic pot; details: 72 h, 3 days, read-out: BG grading of mortality
Description: as §1

[7] = test system: Heliothis virescens (tobacco budworm - larvae); assay: Residual test, tobacco budworm - larvae (HV), Cotton leaf; details: 72 h, read-out: HV grading of mortality
Description: as §2, §3
(§5) The results of the tests are given in Table III for each of the Products, at the rate in parts per million given in the second column as a grading of mortality designated as A, B or C wherein A indicates 80-100% mortality or knockdown (70-100% for Meloidogyne incognita), B indicates 50-79% mortality knockdown or knockdown (50-69% for Meloidogyne incognita) and C indicates less than 50% mortality or knockdown.
as §4
(tobacco budworm - larvae)

[8] = test system: Spodoptera exigua (lesser army worm - larvae); assay: Residual test, lesser army worm - larvae (SP), Cotton leaf; details: 72 h, 3 days, read-out: SP grading of mortality
Description: as §2, §3, §5, §4
(lesser army worm - larvae)

[9] = test system: Diabrotica balteata (rootworm larvae); assay: Residual test, rootworm larvae (DB), Filter paper/maize seed; details: 72 h, 3 days, read-out: DB grading of mortality
Description: as §1

[10] = test system: Meloidogyne incognita (Tomato root knot eelworm - larvae); assay: Residual test, Tomato root knot eelworm - larvae (MI), Semi in-vitro; details: 168 h, application rate is half that recorded, 7 days, read-out: MI grading of mortality; for mortality at 250 µg/mL: rate column 500 ppm

Row | SMILES | mortality at 500 ppm [1] | mortality at 500 ppm [2] | mortality at 500 ppm (Myzus persicae (aphids)) | mortality at 500 ppm [3] | pest or weed control at 500 ppm [4] | mortality at 500 ppm [5] | mortality at 500 ppm [6] | mortality at 500 ppm [7] | mortality at 500 ppm [8] | mortality at 500 ppm [9] | further results
1 | Fc1ccc(CCCC(c2ccc(OC(F)(F)F)cc2)C(F)(F)F)cc1Cc1ccccc1 (stereo not shown) [Compound 108] | 80 to 100% | 80 to 100% | 80 to 100% | 80 to 100% | 80 to 100% | 80 to 100% | 80 to 100% | 80 to 100% | 80 to 100% | < 50% | –
2 | CCOc1c(F)cc(C(=CC=Cc2ccc(F)c(Oc3ccccc3)c2)C(F)(F)F)cc1F [Compound 67, 1,1,1-Trifluoro-2-(3,5-difluoro-4-ethoxyphenyl)-5-(4-fluoro-3-phenoxyphenyl)penta-2,4-diene] | < 50% | < 50% | 80 to 100% | 80 to 100% | < 50% | < 50% | < 50% | 80 to 100% | 80 to 100% | 80 to 100% | mortality at 250 µg/mL [10]: < 50%
3 | Fc1cc(C(CCCc2cccc(Oc3ccccc3)c2)C(F)(F)F)cc(F)c1OC(F)(F)F (racemic) [Compound 71, 1,1,1-Trifluoro-2-(3,5-difluoro-4-trifluoromethoxyphenyl)-5-(3-phenoxyphenyl)pentane] | < 50% | < 50% | 80 to 100% | 50 to 79% | < 50% | < 50% | < 50% | 80 to 100% | 80 to 100% | 80 to 100% | mortality at 250 µg/mL [10]: 70 to 100%
4 | Fc1ccc(C(=CCCc2cccc(Oc3ccccc3)c2)C(F)(F)F)cc1 [Compound 47, 1,1,1-Trifluoro-2-(4-fluorophenyl)-5-(3-phenoxyphenyl)pent-2-ene] | – | – | – | – | – | – | – | – | – | – | mortality at 250 ppm ([1]; 250 ppm): < 50%; mortality at 250 ppm ([2]; 250 ppm): < 50%; mortality at 250 ppm (Myzus persicae (aphids); 250 ppm): < 50%; mortality at 250 ppm ([3]; 250 ppm): < 50%; pest or weed control at 250 ppm ([4]; 250 ppm): < 50%; mortality at 250 ppm ([5]; 250 ppm): < 50%; mortality at 250 ppm ([6]; 250 ppm): 50 to 79%; mortality at 250 ppm [7]: < 50%; mortality at 250 ppm ([8]; 250 ppm): 50 to 79%; mortality at 250 ppm ([9]; 250 ppm): 50 to 79%; mortality at 125 µg/mL ([10]; rate 250 ppm): 50 to 69%
5 | CCOc1ccc(C(=CC=Cc2ccc(F)c(Cc3ccccc3)c2)C(F)(F)F)cc1 [Compound 107, 1,1,1-Trifluoro-2-(4-ethoxyphenyl)-5-(4-fluoro-3-benzylphenyl)penta-2,4-diene] | < 50% | < 50% | 80 to 100% | 50 to 79% | < 50% | < 50% | < 50% | < 50% | 80 to 100% | 80 to 100% | –
6 | Fc1ccc(CCCC(c2ccc(OC(F)(F)F)cc2)C(F)F)cc1Oc1ccccc1 (racemic) [Compound 27, 1,1-Difluoro-2-(4-trifluoromethoxyphenyl)-5-(4-fluoro-3-phenoxyphenyl)pentane] | 80 to 100% | < 50% | 80 to 100% | 80 to 100% | 80 to 100% | 80 to 100% | 80 to 100% | 80 to 100% | 80 to 100% | 80 to 100% | mortality at 250 µg/mL [10]: < 50%
7 | Fc1ccc(C=CC=C(c2ccc(OC(F)(F)F)cc2)C(F)(F)F)cc1Cc1ccccc1 [Compound 105, 1,1,1-Trifluoro-2-(4-trifluoromethoxyphenyl)-5-(4-fluoro-3-benzylphenyl)penta-2,4-diene] | 80 to 100% | 80 to 100% | 80 to 100% | 80 to 100% | < 50% | < 50% | 80 to 100% | < 50% | 80 to 100% | 80 to 100% | –
8 | FC(F)C(CCCc1cccc(Oc2ccccc2)c1)c1ccc(OC(F)(F)F)cc1 (racemic) [Compound 83, 1,1-Difluoro-2-(4-trifluoromethoxyphenyl)-5-(3-phenoxyphenyl)pentane] | 80 to 100% | 80 to 100% | 80 to 100% | 80 to 100% | 80 to 100% | 80 to 100% | 80 to 100% | 80 to 100% | 80 to 100% | 80 to 100% | –
9 | CCOc1ccc(C(CCCc2ccc(F)c(Cc3ccccc3)c2)C(F)(F)F)cc1 (racemic) [Compound 106, 1,1,1-Trifluoro-2-(4-ethoxyphenyl)-5-(3-benzyl-4-fluorophenyl)pentane] | 80 to 100% | 80 to 100% | 80 to 100% | 80 to 100% | 80 to 100% | 80 to 100% | 80 to 100% | 80 to 100% | 80 to 100% | 80 to 100% | –
10 | FC(F)(F)C(CCCc1cccc(Oc2ccccc2)c1)c1ccc2c(c1)OCO2 (stereo not shown) [Compound 40, 1,1,1-Trifluoro-2-(3,4-methylenedioxy)phenyl-5-(3-phenoxyphenyl)pentane] | < 50% | < 50% | 80 to 100% | < 50% | 80 to 100% | 80 to 100% | 50 to 79% | 80 to 100% | 80 to 100% | 80 to 100% | –
11 | CCOc1ccc(C(CCCc2cccc(Oc3ccccc3)n2)C(F)(F)F)cc1 (stereo not shown) [Compound 98] | 80 to 100% | < 50% | 80 to 100% | < 50% | 80 to 100% | 80 to 100% | 80 to 100% | 80 to 100% | 80 to 100% | 80 to 100% | –
12 | FC(F)(F)C(=CCCc1cccc(Oc2ccccc2)c1)c1ccc2c(c1)OCO2 [Compound 41, 1,1,1-Trifluoro-2-(3,4-methylenedioxyphenyl)-5-(3-phenoxyphenyl)pent-2-ene] | < 50% | < 50% | < 50% | < 50% | 80 to 100% | 80 to 100% | < 50% | 50 to 79% | 50 to 79% | 80 to 100% | –
